Reference: ChEMBL document CHEMBL5143549, “Phenothiazine, anthraquinone and related tricyclic derivatives as inhibitors of monoamine oxidase” (Bioorg Med Chem, 2022)
pIC50, pKi: −log10 of the molar value.

How the values were obtained:
[1] = target: T1, Amine oxidase [flavin-containing] A (Homo sapiens, UniProt P21397); assay: Inhibition of recombinant human MAO-A expressed in baculovirus infected BTI insect cells using kynuramine as substrate after 20 mins by fluorescence spectrophotometric assay
T1 sequence (P21397 whole entry): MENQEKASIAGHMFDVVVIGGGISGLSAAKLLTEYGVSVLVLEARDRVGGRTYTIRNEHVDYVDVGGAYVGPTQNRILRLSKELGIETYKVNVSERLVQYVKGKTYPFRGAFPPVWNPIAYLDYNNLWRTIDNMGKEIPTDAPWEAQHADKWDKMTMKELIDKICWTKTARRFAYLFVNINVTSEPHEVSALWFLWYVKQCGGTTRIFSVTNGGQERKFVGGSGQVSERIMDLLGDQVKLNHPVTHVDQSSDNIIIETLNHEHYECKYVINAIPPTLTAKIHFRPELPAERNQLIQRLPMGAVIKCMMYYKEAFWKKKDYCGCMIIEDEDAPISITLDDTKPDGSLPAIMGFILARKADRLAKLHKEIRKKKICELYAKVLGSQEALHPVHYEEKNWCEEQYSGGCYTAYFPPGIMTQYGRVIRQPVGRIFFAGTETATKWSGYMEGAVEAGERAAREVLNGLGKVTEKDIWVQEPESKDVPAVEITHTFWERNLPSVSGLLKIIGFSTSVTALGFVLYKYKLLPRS

[2] = target: T2, Amine oxidase [flavin-containing] B (Homo sapiens, UniProt P27338); assay: Inhibition of recombinant human MAO-B expressed in baculovirus infected BTI insect cells using kynuramine as substrate after 20 mins by fluorescence spectrophotometric assay
T2 sequence (P27338 whole entry): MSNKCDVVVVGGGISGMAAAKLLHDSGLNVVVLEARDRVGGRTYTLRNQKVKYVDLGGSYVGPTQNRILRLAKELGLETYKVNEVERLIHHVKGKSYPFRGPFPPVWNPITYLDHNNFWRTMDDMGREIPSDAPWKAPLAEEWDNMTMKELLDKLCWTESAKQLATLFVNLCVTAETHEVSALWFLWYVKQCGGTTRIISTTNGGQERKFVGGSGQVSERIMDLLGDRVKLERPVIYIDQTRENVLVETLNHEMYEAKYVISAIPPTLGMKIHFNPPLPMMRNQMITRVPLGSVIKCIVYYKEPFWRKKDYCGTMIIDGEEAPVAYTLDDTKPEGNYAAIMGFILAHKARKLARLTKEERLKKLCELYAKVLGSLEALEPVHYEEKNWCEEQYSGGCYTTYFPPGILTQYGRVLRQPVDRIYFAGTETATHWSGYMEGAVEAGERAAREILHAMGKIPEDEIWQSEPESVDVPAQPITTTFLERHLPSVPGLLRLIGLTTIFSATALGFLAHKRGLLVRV

[3] = target: T2, Amine oxidase [flavin-containing] B; assay: Inhibition of recombinant human MAO-B expressed in baculovirus infected BTI insect cells using kynuramine as substrate after 20 mins by Lineweaver-Burk plot analysis
[4] = species: Homo sapiens; assay: Selectivity index, ratio IC50 for recombinant human MAO-B to IC50 for recombinant human MAO-A
[5] = target: T1, Amine oxidase [flavin-containing] A; assay: Inhibition of recombinant human MAO-A expressed in baculovirus infected BTI insect cells using kynuramine as substrate after 20 mins by Lineweaver-Burk plot analysis

Compound | pIC50 [1] | pIC50 [2] | pKi [3] | Ratio IC50 [4] | pKi [5]
O=C1c2ccccc2C(=O)c2c1ccc1c(=O)c3ccccc3[nH]c21 | 4.07 | – | – | – | –
COc1ccc2c(c1)Sc1ccc(Cl)cc1N2 | 6.24 | 5.87 | 7.35 | – | –
O=C1C(=O)c2ccccc2-c2ccccc21 [9,10-PHENANTHRENEQUINONE] | 5.72 | – | – | – | –
Clc1c2ccccc2nc2ccccc12 | 4.92 | 4.04 | – | 7.6 | –
O=C1c2cccc(O)c2C(=O)c2cccc(O)c21 [ANTHRARUFIN] | 4.51 | – | – | – | –
O=C1c2ccc(O)c(O)c2C(=O)c2c(O)ccc(O)c21 [QUINALIZARIN] | 4.77 | – | – | – | –
Nc1ccc2c(c1N)C(=O)c1ccccc1C2=O | 5.64 | 5.62 | – | 1.06 | –
O=C1c2ccccc2C(=O)c2c(O)c(O)cc(O)c21 [PURPURIN] | 5.10 | 4.40 | – | 5.03 | –
c1ccc2c(c1)Cc1ccccc1O2 [XANTHENE] | 4.61 | 5.13 | – | 0.32 | –
O=C1c2ccccc2C(=O)c2cnccc21 | 4.69 | 5.37 | – | 0.21 | –
CC1(C)CC(=O)C2=C(C1)C(=O)C1=C(C2)C(=O)CC(C)(C)C1 | 4.29 | – | – | – | –
O=C1c2cccc(O)c2C(=O)c2c(O)cccc21 [DANTHRON] | 4.97 | 4.23 | – | 5.49 | –
O=C1c2ccccc2C(=O)c2ccccc21 [ANTHRAQUINONE] | 3.91 | – | – | – | –
Cc1cc(O)c2c(c1)C(=O)c1cc(O)cc(O)c1C2=O [EMODIN] | 5.36 | 5.49 | – | 0.75 | –
Nc1c2ccccc2nc2ccccc12 [AMINACRINE] | 4.59 | 3.95 | – | 4.31 | –
OC1c2ccccc2Oc2ccccc21 | 4.55 | 4.04 | – | 3.24 | –
O=C1c2ccc(O)cc2C(=O)c2ccc(O)cc21 [ANTHRAFLAVICACID] | 4.94 | 5.25 | – | 0.49 | –
Nc1c(C(=O)O)c2nc3c(C(=O)O)cccc3oc-2cc1=O [CINNABARINIC ACID] | 4.34 | 4.19 | – | 1.43 | –
O=C1c2ccccc2Cc2ccccc21 [ANTHRONE] | 5.72 | – | – | – | –
Clc1ccc2c(c1)Nc1ccccc1S2 | 5.91 | – | – | – | –
O=c1c2ccccc2oc2ccccc12 [XANTHONE] | 6.21 | – | – | – | –
CN1c2ccccc2Sc2ccccc21 | 4.60 | – | – | – | –
O=C1c2ccccc2C(=O)c2c(O)ccc(O)c21 [QUINIZARIN] | 7.19 | 3.96 | – | 1690 | 7.41
Cc1ccc2nc3c(ccc4ccccc43)c(C)c2c1 | 4.02 | – | – | – | –
O=C1c2cccc(O)c2C(=O)c2c(O)cc(CO)cc21 [ALOE-EMODIN] | 5.75 | 4.66 | – | 12.4 | –
Nc1ccc(N)c2c1C(=O)c1ccccc1C2=O | 5.97 | – | – | – | –
